Experimental data from patent US12435059B2, “AMP-activated protein kinase inhibitors and methods of making and using the same” (The Regents of the University of Colorado, priority 2019, dated 2025).

Tests used:
Assay in all cases: biochemical
Format in all cases: binding
[1] = target: 468 kinases (Homo sapiens, UniProt O00238); conditions: BMPR1B; read-out: % Inhibition @ 100 nM
[2] = target: 468 kinases (Homo sapiens, UniProt O00329); conditions: PIK3CD; read-out: % Inhibition @ 100 nM
[3] = target: 468 kinases (Homo sapiens, UniProt O75460); conditions: ERN1; read-out: % Inhibition @ 100 nM
468 kinases (Homo sapiens, UniProt O75460), sequence (O75460 19-977 limits assumed): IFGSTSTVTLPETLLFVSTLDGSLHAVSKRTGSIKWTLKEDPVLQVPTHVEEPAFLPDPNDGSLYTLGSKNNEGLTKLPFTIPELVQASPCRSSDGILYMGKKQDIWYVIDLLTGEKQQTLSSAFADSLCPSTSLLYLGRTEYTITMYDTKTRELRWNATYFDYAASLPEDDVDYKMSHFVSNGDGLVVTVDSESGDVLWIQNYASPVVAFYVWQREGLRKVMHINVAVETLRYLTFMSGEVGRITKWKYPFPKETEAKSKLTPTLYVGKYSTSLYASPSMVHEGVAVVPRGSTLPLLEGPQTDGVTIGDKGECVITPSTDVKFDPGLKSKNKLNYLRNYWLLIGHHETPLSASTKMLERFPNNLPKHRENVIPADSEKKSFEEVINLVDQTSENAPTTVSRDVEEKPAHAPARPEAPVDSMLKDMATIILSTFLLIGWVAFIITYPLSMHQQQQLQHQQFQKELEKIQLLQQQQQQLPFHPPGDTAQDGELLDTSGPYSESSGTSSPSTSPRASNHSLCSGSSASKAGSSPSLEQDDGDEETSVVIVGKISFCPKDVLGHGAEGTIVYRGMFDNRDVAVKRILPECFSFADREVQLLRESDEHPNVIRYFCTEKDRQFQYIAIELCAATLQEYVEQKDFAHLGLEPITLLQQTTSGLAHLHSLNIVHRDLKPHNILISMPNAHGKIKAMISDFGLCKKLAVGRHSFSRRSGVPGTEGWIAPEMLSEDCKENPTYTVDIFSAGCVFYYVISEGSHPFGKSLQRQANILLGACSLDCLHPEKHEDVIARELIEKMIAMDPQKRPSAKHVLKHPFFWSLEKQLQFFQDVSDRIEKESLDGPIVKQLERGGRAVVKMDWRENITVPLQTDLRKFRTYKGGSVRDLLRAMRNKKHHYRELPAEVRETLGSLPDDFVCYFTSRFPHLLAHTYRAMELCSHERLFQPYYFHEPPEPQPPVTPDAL

[4] = target: 468 kinases (Homo sapiens, UniProt P00533); conditions: EGFR; read-out: % Inhibition @ 100 nM
[5] = target: 468 kinases (Homo sapiens, UniProt P00533, G719C); conditions: EGFR(G719C); read-out: % Inhibition @ 100 nM
468 kinases (Homo sapiens, UniProt P00533, G719C), sequence (P00533 25-1210 G719C limits assumed): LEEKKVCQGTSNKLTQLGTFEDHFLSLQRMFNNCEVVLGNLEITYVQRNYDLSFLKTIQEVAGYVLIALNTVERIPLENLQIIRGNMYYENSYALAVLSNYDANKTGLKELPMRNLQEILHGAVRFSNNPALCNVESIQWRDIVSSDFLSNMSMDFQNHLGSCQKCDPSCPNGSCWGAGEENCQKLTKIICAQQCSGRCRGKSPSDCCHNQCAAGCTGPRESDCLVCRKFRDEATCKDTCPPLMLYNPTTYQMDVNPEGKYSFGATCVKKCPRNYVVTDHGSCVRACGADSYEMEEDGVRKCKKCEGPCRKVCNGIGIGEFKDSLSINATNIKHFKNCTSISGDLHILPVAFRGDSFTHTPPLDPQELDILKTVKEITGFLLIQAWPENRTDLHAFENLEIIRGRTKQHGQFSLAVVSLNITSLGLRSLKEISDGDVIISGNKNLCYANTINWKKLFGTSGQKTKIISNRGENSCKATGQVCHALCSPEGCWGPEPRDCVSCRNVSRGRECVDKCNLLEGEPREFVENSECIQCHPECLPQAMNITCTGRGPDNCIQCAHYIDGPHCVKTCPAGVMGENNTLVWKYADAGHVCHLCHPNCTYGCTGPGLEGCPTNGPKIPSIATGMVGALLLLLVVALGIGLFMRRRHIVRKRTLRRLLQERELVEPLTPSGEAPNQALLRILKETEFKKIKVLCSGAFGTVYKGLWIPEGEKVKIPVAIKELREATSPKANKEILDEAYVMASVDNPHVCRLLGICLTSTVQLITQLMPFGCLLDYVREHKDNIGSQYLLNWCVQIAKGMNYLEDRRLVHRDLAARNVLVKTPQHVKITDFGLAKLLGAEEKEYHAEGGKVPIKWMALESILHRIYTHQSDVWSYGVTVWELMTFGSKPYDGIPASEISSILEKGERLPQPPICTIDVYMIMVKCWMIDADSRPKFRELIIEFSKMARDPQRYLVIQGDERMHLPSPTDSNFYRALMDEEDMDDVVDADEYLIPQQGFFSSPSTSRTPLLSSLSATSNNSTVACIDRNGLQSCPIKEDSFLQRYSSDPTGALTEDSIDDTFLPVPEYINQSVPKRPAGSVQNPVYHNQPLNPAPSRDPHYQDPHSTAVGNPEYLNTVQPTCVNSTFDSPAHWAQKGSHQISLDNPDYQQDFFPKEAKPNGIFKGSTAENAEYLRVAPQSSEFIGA

[6] = target: 468 kinases (Homo sapiens, UniProt P07332); conditions: FES; read-out: % Inhibition @ 100 nM
[7] = target: 468 kinases (Homo sapiens, UniProt P09619); conditions: PDGFRB; read-out: % Inhibition @ 100 nM
[8] = target: 468 kinases (Homo sapiens, UniProt P09769); conditions: FGR; read-out: % Inhibition @ 100 nM
468 kinases (Homo sapiens, UniProt P09769), sequence (P09769 2-529 limits assumed): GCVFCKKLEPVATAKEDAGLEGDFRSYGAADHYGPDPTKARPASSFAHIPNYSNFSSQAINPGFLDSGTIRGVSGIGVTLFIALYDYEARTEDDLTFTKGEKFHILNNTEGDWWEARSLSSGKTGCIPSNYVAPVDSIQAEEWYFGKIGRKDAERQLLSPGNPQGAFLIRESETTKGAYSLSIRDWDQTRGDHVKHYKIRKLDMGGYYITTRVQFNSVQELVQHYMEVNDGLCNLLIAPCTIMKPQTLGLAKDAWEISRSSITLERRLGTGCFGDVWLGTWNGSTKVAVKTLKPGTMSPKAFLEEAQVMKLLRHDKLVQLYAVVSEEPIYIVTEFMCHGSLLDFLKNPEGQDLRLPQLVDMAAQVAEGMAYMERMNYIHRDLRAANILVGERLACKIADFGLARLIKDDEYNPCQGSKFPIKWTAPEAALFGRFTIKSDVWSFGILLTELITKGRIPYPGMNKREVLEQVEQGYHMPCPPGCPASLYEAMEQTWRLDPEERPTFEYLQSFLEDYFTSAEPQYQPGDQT

[9] = target: 468 kinases (Homo sapiens, UniProt P10721, D816H); conditions: KIT(D816H); read-out: % Inhibition @ 100 nM
[10] = target: 468 kinases (Homo sapiens, UniProt P11362); conditions: FGFR1; read-out: % Inhibition @ 100 nM
[11] = target: 468 kinases (Homo sapiens, UniProt P20794); conditions: MAK; read-out: % Inhibition @ 100 nM
[12] = target: 468 kinases (Homo sapiens, UniProt P21709); conditions: EPHA1; read-out: % Inhibition @ 100 nM
468 kinases (Homo sapiens, UniProt P21709), sequence (P21709 26-976 limits assumed): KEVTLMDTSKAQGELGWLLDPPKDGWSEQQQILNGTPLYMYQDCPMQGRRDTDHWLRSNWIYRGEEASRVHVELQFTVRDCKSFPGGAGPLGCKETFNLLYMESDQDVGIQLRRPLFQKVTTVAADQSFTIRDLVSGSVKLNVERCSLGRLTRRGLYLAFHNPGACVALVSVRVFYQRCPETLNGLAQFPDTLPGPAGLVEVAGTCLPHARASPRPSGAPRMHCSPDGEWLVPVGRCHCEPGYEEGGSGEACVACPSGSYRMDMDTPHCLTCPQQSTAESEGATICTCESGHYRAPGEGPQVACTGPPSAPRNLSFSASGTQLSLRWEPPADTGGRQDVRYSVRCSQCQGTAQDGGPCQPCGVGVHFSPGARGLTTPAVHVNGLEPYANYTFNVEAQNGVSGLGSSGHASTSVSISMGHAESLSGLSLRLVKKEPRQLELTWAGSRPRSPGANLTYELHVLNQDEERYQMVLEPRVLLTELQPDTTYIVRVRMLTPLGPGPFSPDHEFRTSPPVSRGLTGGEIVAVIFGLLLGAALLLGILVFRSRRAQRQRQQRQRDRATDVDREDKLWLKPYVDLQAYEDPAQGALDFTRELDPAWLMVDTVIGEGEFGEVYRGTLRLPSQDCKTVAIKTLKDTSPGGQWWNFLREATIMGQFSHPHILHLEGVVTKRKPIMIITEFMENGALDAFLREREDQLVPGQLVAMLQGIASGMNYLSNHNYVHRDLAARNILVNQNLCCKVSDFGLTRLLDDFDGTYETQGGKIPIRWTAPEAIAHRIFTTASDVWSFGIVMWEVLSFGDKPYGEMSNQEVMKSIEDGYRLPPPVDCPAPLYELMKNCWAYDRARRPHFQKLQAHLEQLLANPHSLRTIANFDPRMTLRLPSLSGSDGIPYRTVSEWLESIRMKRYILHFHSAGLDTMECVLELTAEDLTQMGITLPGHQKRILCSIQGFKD

[13] = target: 468 kinases (Homo sapiens, UniProt P36888, R834Q); conditions: FLT3(R834Q); read-out: % Inhibition @ 100 nM
[14] = target: 468 kinases (Homo sapiens, UniProt P37023); conditions: ACVRL1; read-out: % Inhibition @ 100 nM
468 kinases (Homo sapiens, UniProt P37023), sequence (P37023 22-503 limits assumed): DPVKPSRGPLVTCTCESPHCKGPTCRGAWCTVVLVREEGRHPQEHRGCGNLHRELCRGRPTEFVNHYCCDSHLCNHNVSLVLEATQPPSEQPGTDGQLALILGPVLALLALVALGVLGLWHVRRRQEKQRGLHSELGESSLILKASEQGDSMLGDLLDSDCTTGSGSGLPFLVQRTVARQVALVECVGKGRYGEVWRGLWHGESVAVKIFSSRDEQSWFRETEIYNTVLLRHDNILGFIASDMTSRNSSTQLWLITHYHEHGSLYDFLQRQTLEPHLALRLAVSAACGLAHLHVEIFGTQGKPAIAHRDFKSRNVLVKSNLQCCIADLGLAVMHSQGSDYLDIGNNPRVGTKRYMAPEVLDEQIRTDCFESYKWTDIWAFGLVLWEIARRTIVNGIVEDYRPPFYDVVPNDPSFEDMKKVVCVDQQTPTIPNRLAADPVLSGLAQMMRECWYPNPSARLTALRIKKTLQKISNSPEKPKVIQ

[15] = target: 468 kinases (Homo sapiens, UniProt P42336, M1043I); conditions: PIK3CA(M10431); read-out: % Inhibition @ 100 nM
[16] = target: 468 kinases (Homo sapiens, UniProt P49137); conditions: MAPKAPK2; read-out: % Inhibition @ 100 nM
[17] = target: 468 kinases (Homo sapiens, UniProt P51956); conditions: NEK3; read-out: % Inhibition @ 100 nM
[18] = target: 468 kinases (Homo sapiens, UniProt P53667); conditions: LIMK1; read-out: % Inhibition @ 100 nM
[19] = target: 468 kinases (Homo sapiens, UniProt P57059); conditions: SIK; read-out: % Inhibition @ 100 nM
[20] = target: 468 kinases (Homo sapiens, UniProt Q13555); conditions: CAMK2G; read-out: % Inhibition @ 100 nM
[21] = target: 468 kinases (Homo sapiens, UniProt Q15139); conditions: PRKD1; read-out: % Inhibition @ 100 nM
[22] = target: 468 kinases (Homo sapiens, UniProt Q16513); conditions: PKN2; read-out: % Inhibition @ 100 nM
[23] = target: 468 kinases (Homo sapiens, UniProt Q16539); conditions: p38-alpha; read-out: % Inhibition @ 100 nM
468 kinases (Homo sapiens, UniProt Q16539), sequence (Q16539 2-360 limits assumed): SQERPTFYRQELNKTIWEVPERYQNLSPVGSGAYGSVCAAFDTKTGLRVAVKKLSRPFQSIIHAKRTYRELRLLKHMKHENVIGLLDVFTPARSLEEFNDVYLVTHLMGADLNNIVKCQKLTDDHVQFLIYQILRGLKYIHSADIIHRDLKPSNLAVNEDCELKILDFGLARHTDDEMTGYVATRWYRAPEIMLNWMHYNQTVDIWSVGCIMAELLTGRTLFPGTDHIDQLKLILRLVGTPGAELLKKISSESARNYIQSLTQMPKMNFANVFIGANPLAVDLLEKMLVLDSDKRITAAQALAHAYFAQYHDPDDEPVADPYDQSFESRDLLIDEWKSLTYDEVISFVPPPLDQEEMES

[24] = target: 468 kinases (Homo sapiens, UniProt Q16620); conditions: TRKB; read-out: % Inhibition @ 100 nM
[25] = target: 468 kinases (Homo sapiens, UniProt Q59H18); conditions: TNNI3K; read-out: % Inhibition @ 100 nM
[26] = target: 468 kinases (Homo sapiens, UniProt Q86Y07); conditions: VRK2; read-out: % Inhibition @ 100 nM
[27] = target: 468 kinases (Homo sapiens, UniProt Q96BR1); conditions: SGK3; read-out: % Inhibition @ 100 nM
[28] = target: 468 kinases (Homo sapiens, UniProt Q96GD4); conditions: AURKB; read-out: % Inhibition @ 100 nM
[29] = target: 468 kinases (Homo sapiens, UniProt Q96SB4); conditions: SRPK1; read-out: % Inhibition @ 100 nM
[30] = target: 468 kinases (Homo sapiens, UniProt Q99683); conditions: ASK1; read-out: % Inhibition @ 100 nM
[31] = target: 468 kinases (Homo sapiens, UniProt Q9UIK4); conditions: DAPK2; read-out: % Inhibition @ 100 nM
[32] = target: 468 kinases (Homo sapiens, UniProt Q9Y3S1); conditions: WNK2; read-out: % Inhibition @ 100 nM
[33] = target: 468 kinases (Plasmodium falciparum, UniProt P61075); conditions: PFPK5 (P.falciparum); read-out: % Inhibition @ 100 nM

468 kinases (Homo sapiens, UniProt O00238), sequence (O00238 14-502 limits assumed): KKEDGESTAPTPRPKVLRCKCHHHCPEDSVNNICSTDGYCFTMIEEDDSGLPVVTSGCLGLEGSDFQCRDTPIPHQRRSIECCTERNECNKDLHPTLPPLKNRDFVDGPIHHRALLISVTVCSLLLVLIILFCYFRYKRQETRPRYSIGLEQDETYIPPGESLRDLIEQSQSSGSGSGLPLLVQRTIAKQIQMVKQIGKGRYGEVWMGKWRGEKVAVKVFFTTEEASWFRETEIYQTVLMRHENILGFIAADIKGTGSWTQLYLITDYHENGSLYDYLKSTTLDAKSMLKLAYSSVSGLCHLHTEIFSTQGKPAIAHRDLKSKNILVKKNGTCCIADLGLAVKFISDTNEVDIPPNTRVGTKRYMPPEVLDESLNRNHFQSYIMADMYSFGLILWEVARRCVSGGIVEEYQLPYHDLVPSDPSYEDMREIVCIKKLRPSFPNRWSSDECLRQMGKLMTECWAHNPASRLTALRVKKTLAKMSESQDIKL

CCN(CC)CCNC(=O)c1c(C)[nH]c(/C=C2\C(=O)Nc3ccc(CCO)cc32)c1C [Compound No. 10, (Z)—N-(2-(Diethylamino)ethyl)-5-((5-(2-hydroxyethyl)-2-oxoindolin-3-ylidene)methyl)-2,4-dimethyl-1H-pyrrole-3-carboxamide]
inhibition at 0.1 µM [1]: 0%
inhibition at 0.1 µM [2]: 0%
inhibition at 0.1 µM [3]: 0%
inhibition at 0.1 µM [4]: 0%
inhibition at 0.1 µM [5]: 32%
inhibition at 0.1 µM [6]: 20%
inhibition at 0.1 µM [7]: 99.3%
inhibition at 0.1 µM [8]: 16%
inhibition at 0.1 µM [9]: 6%
inhibition at 0.1 µM [10]: 44%
inhibition at 0.1 µM [11]: 0%
inhibition at 0.1 µM [12]: 0%
inhibition at 0.1 µM [13]: 56%
inhibition at 0.1 µM [14]: 0%
inhibition at 0.1 µM [15]: 0%
inhibition at 0.1 µM [16]: 0%
inhibition at 0.1 µM [17]: 50%
inhibition at 0.1 µM [18]: 0%
inhibition at 0.1 µM [19]: 0%
inhibition at 0.1 µM [20]: 8%
inhibition at 0.1 µM [21]: 0%
inhibition at 0.1 µM [22]: 24%
inhibition at 0.1 µM [23]: 0%
inhibition at 0.1 µM [24]: 61%
inhibition at 0.1 µM [25]: 0%
inhibition at 0.1 µM [26]: 0%
inhibition at 0.1 µM [27]: 0%
inhibition at 0.1 µM [28]: 20%
inhibition at 0.1 µM [29]: 60%
inhibition at 0.1 µM [30]: 0%
inhibition at 0.1 µM [31]: 0%
inhibition at 0.1 µM [32]: 0%
inhibition at 0.1 µM [33]: 0%

CCN(CC)CCNC(=O)c1c(C)[nH]c(/C=C2\C(=O)Nc3ccc(CCC(N)=O)cc32)c1C [Compound No. 16, (Z)-5-((5-(3-Amino-3-oxopropyl)-2-oxoindolin-3-ylidene)methyl)-N-(2-(diethylamino)ethyl)-2,4-dimethyl-1H-pyrrole-3-carboxamide]
inhibition at 0.1 µM [1]: 28%
inhibition at 0.1 µM [2]: 24%
inhibition at 0.1 µM [3]: 10%
inhibition at 0.1 µM [4]: 64%
inhibition at 0.1 µM [5]: 9%
inhibition at 0.1 µM [6]: 0%
inhibition at 0.1 µM [7]: 61%
inhibition at 0.1 µM [8]: 32%
inhibition at 0.1 µM [9]: 33%
inhibition at 0.1 µM [10]: 14%
inhibition at 0.1 µM [11]: 4%
inhibition at 0.1 µM [12]: 0%
inhibition at 0.1 µM [13]: 55%
inhibition at 0.1 µM [14]: 0%
inhibition at 0.1 µM [15]: 12%
inhibition at 0.1 µM [16]: 0%
inhibition at 0.1 µM [17]: 45%
inhibition at 0.1 µM [18]: 17%
inhibition at 0.1 µM [19]: 9%
inhibition at 0.1 µM [20]: 18%
inhibition at 0.1 µM [21]: 0%
inhibition at 0.1 µM [22]: 18%
inhibition at 0.1 µM [23]: 0%
inhibition at 0.1 µM [24]: 83%
inhibition at 0.1 µM [25]: 5%
inhibition at 0.1 µM [26]: 39%
inhibition at 0.1 µM [27]: 26%
inhibition at 0.1 µM [28]: 34%
inhibition at 0.1 µM [29]: 78%
inhibition at 0.1 µM [30]: 20%
inhibition at 0.1 µM [31]: 7%
inhibition at 0.1 µM [32]: 13%
inhibition at 0.1 µM [33]: 40%
